SMILES strings stand for the structures. Where a name gives a salt, the structure may show the parent alone. Where only a bound is given, the exact number is not on record here.

This assay concerns CD4+ CCR4+ T cells. Put plainly: Chemokine stimulated increases in cellular F-actin content. The format is cell-based. As to conditions: Homo sapiens, T-cell, 0.5 h; PBMC from normal volunteers; antagonist 30 min at 37° C. before agonist for 15 sec; F-actin content by flow cytometry; read-out: pA2 (converted). On the procedure: Chemokine Stimulated Increases in Cellular F-Actin Content
Blood was taken from normal volunteers who had taken no medication within the previous ten days and mixed with 1/9 of the volume of 3.8% tri-sodium citrate solution. Chemokine-induced increases in the F-actin content of CD4+ CCR4+ T cells were measured by a modification of the method of Pilette et al. (Eur. Respir. J; 23: 876-884, 2004). Peripheral blood mononuclear cells (PBMC) were isolated by dextran sedimentation followed by Percoll density gradient centrifugation. The PBMCs were incubated with FITC-conjugated anti-human CD4 and PE-conjugated anti-CCR4 antibodies or appropriate isotype controls for 15 min. The cell suspensions were then centrifuged at 400 g for 10 min and the pellets resuspended in assay buffer (phenol red-free RPMI 1640 medium containing 10 mM HEPES and 0.1% bovine serum albumin) at 10^7/mL. The resulting cell suspension was incubated with antagonist or vehicle (0.1% DMSO) for 30 min at 37° C. before stimulation with the agonist for 15 sec. The assay was terminated by addition of 3% formaldehyde. The fixed cells were washed twice with PBS (centrifuging at 1000 g for 5 min to recover the cells) and incubated at room temperature with Alexa fluor-647 phalloidin (0.075 U/mL) in the presence of lyso-phosphatidylcholine (93.75 μg/ml) for 20 min to stain F-actin. The cells were washed once more with PBS and the relative F-actin content of the cells was measured flow cytometrically. The mean fluorescence intensity of 1000 CD4^+ CCR4^+ cells per sample was determined and expressed as a fraction of the mean intensity of the CD4^+ CCR4^− cells in that sample.
(In general: In flow cytometry, cells or beads pass a laser one at a time.)
Take `COc1cccc2c1c(NS(=O)(=O)c1ccc(Cl)s1)nn2Cc1cccc(CNC(C)=O)c1` [Example 1, N-[(3-{[3-{[(5-Chloro-2-thienyl)sulfonyl]amino}-4-(methyloxy)-1H-indazol-1-yl]methyl}phenyl)methyl]acetamide]: the Kb is at most 0.126 µM. Take `COc1cccc2c1c(NS(=O)(=O)c1ccc(Cl)s1)nn2Cc1cccc(CNC=O)c1` [Example 5, 5-Chloro-N-[1-({3-[(formylamino)methyl]phenyl}methyl)-4-(methyloxy)-1H-indazol-3-yl]-2-thiophenesulfonamide]: the Kb is at most 0.126 µM. Take `COc1cccc2c1c(NS(=O)(=O)c1ccc(Cl)s1)nn2Cc1cccc(CNC(=O)[C@H]2CCCCN2)c1` [Example 9, (2R)—N-[(3-{[3-{[(5-chloro-2-thienyl)sulfonyl]amino}-4-(methyloxy)-1H-indazol-1-yl]methyl}phenyl)methyl]-2-piperidinecarboxamide trifluoroacetate salt]: the Kb is at most 0.126 µM. With `COc1cccc2c1c(NS(=O)(=O)c1ccc(Cl)s1)nn2Cc1cccc(CNC(=O)C(C)(C)CN)c1` [Example 11, 3-Amino-N-[(3-{[3-{[(5-chloro-2-thienyl)sulfonyl]amino}-4-(methyloxy)-1H-indazol-1-yl]methyl}phenyl)methyl]-2,2-dimethylpropanamide hydrochloride], the Kb was at most 0.126 µM. With `CNCC(=O)NCc1cccc(Cn2nc(NS(=O)(=O)c3ccc(Cl)s3)c3c(OC)cccc32)c1` [Example 12, N^1-[(3-{[3-{[(5-chloro-2-thienyl)sulfonyl]amino}-4-(methyloxy)-1H-indazol-1-yl]methyl}phenyl)methyl]-N^2-methylglycinamide hydrochloride], the Kb was at most 0.126 µM. Take `COc1cccc2c1c(NS(=O)(=O)c1ccc(Cl)s1)nn2Cc1cccc(CNC(=O)[C@@]2(C)CCCN2)c1` [Example 13, N-[(3-{[3-{[(5-Chloro-2-thienyl)sulfonyl]amino}-4-(methyloxy)-1H-indazol-1-yl]methyl}phenyl)methyl]-2-methyl-D-prolinamide]: the Kb was at most 0.126 µM. With `COc1cccc2c1c(NS(=O)(=O)c1ccc(Cl)s1)nn2Cc1cccc(CNC(=O)C2(C)CCCCN2)c1` (stereo not shown) [Example 14, N-[(3-{[3-{[(5-chloro-2-thienyl)sulfonyl]amino}-4-(methyloxy)-1H-indazol-1-yl]methyl}phenyl)methyl]-2-methyl-2-piperidinecarboxamide], the Kb is at most 0.126 µM. With `CNC1(C(=O)NCc2cccc(Cn3nc(NS(=O)(=O)c4ccc(Cl)s4)c4c(OC)cccc43)c2)CC1` [Example 15, N-[(3-{[3-{[(5-Chloro-2-thienyl)sulfonyl]amino}-4-(methyloxy)-1H-indazol-1-yl]methyl}phenyl)methyl]-1-(methylamino)cyclopropanecarboxamide hydrochloride], the Kb is at most 0.126 µM. As for `COc1cccc2c1c(NS(=O)(=O)c1ccc(Cl)s1)nn2Cc1cccc(CNC(=O)[C@@H](C)N)c1` [Example 19, N^1-[(3-{[3-{[(5-chloro-2-thienyl)sulfonyl]amino}-4-(methyloxy)-1H-indazol-1-yl]methyl}phenyl)methyl]-D-alaninamide trifluoroacetate], the Kb is at most 0.126 µM. In the case of `COc1cccc2c1c(NS(=O)(=O)c1ccc(Cl)s1)nn2Cc1cccc(CNC(=O)CN)c1` [Example 20, N^1-[(3-{[3-{[(5-chloro-2-thienyl)sulfonyl]amino}-4-(methyloxy)-1H-indazol-1-yl]methyl}phenyl)methyl]glycinamide trifluoroacetate] it was at most 0.126 µM; in that of `CNC(=O)[C@@H](N)CC(=O)NCc1cccc(Cn2nc(NS(=O)(=O)c3ccc(Cl)s3)c3c(OC)cccc32)c1` [Example 22, N^4-[(3-{[3-{[(5-chloro-2-thienyl)sulfonyl]amino}-4-(methyloxy)-1H-indazol-1-yl]methyl}phenyl)methyl]-N^1-methyl-L-aspartamide trifluoroacetate], at most 0.126 µM. With `COC(=O)[C@@H](N)CC(=O)NCc1cccc(Cn2nc(NS(=O)(=O)c3ccc(Cl)s3)c3c(OC)cccc32)c1` [Example 23, Methyl N^4-[(3-{[3-{[(5-chloro-2-thienyl)sulfonyl]amino}-4-(methyloxy)-1H-indazol-1-yl]methyl}phenyl)methyl]asparaginate trifluoroacetate], the Kb is at most 0.126 µM.

Consider `COc1cccc2c1c(NS(=O)(=O)c1ccc(Cl)s1)nn2Cc1cccc(CNC(=O)CC2CCCN2)c1` (stereo not shown) [Example 24, N-[(3-{[3-{[(5-chloro-2-thienyl)sulfonyl]amino}-4-(methyloxy)-1H-indazol-1-yl]methyl}phenyl)methyl]-2-(2-pyrrolidinyl)acetamide trifluoroacetate], for which the Kb was at most 0.126 µM. For `COc1cccc2c1c(NS(=O)(=O)c1ccc(Cl)s1)nn2Cc1cccc(CNC(=O)CC(C)N)c1` (stereo not shown) [Example 25, 3-Amino-N-[(3-{[3-{[(5-chloro-2-thienyl)sulfonyl]amino}-4-(methyloxy)-1H-indazol-1-yl]methyl}phenyl)methyl]butanamide trifluoroacetate] the value was at most 0.126 µM; for `CNCCC(=O)NCc1cccc(Cn2nc(NS(=O)(=O)c3ccc(Cl)s3)c3c(OC)cccc32)c1` [Example 29, N^1-[(3-{[3-{[(5-Chloro-2-thienyl)sulfonyl]amino}-4-(methyloxy)-1H-indazol-1-yl]methyl}phenyl)methyl]-N^3-methyl-β-alaninamide trifluoroacetate], at most 0.126 µM.

As for `COCC(=O)NCc1cccc(Cn2nc(NS(=O)(=O)c3ccc(Cl)s3)c3c(OC)cccc32)c1` [Example 30, N-[(3-{[3-{[(5-Chloro-2-thienyl)sulfonyl]amino}-4-(methyloxy)-1H-indazol-1-yl]methyl}phenyl)methyl]-2-(methyloxy)acetamide], the Kb was at most 0.126 µM.

For the compound `COc1cccc2c1c(NS(=O)(=O)c1ccc(Cl)s1)nn2Cc1cccc(CNC(=O)[C@H](C)N(C)C)c1` [Example 31, N^1-[(3-{[3-{[(5-Chloro-2-thienyl)sulfonyl]amino}-4-(methyloxy)-1H-indazol-1-yl]methyl}phenyl)methyl]-N^2,N^2-dimethylalaninamide trifluoroacetate], the Kb was at most 0.126 µM.

Consider `COc1cccc2c1c(NS(=O)(=O)c1ccc(Cl)s1)nn2Cc1cccc(CNC(=O)CO)c1` [Example 32, N-[(3-{[3-{[(5-Chloro-2-thienyl)sulfonyl]amino}-4-(methyloxy)-1H-indazol-1-yl]methyl}phenyl)methyl]-2-hydroxyacetamide], for which the Kb was at most 0.126 µM.

For `COc1cccc2c1c(NS(=O)(=O)c1ccc(Cl)s1)nn2Cc1cccc(CNC(=O)C(C)(C)N(C)C)c1` [Example 34, N^1-[(3-{[3-{[(5-Chloro-2-thienyl)sulfonyl]amino}-4-(methyloxy)-1H-indazol-1-yl]methyl}phenyl)methyl]-N^2,N^2,2-trimethylalaninamide trifluoroacetate], the Kb was at most 0.126 µM. Regarding `COCCN(C)CC(=O)NCc1cccc(Cn2nc(NS(=O)(=O)c3ccc(Cl)s3)c3c(OC)cccc32)c1` [Example 36, N^1-[(3-{[3-{[(5-Chloro-2-thienyl)sulfonyl]amino}-4-(methyloxy)-1H-indazol-1-yl]methyl}phenyl)methyl]-N^2-methyl-N^2-[2-(methyloxy)ethyl]glycinamide trifluoroacetate], the Kb was at most 0.126 µM. As for `COc1cccc2c1c(NS(=O)(=O)c1ccc(Cl)s1)nn2Cc1cccc(CNC(=O)c2cnco2)c1` [Example 38, N-[(3-{[3-{[(5-Chloro-2-thienyl)sulfonyl]amino}-4-(methyloxy)-1H-indazol-1-yl]methyl}phenyl)methyl]-1,3-oxazole-5-carboxamide], the Kb is at most 0.126 µM. On to `COc1cccc2c1c(NS(=O)(=O)c1ccc(Cl)s1)nn2Cc1cccc(CNC(=O)[C@@H]2CCCN2C)c1` [Example 39, N-[(3-{[3-{[(5-Chloro-2-thienyl)sulfonyl]amino}-4-(methyloxy)-1H-indazol-1-yl]methyl}phenyl)methyl]-methyl-L-prolinamide trifluoroacetate], for which the Kb is at most 0.126 µM.

In the case of `COc1cccc2c1c(NS(=O)(=O)c1ccc(Cl)s1)nn2Cc1cccc(CNC(=O)[C@H]2CCCN2C)c1` [Example 40, N-[(3-{[3-{[(5-Chloro-2-thienyl)sulfonyl]amino}-4-(methyloxy)-1H-indazol-1-yl]methyl}phenyl)methyl]-1-methyl-D-prolinamide trifluoroacetate], the Kb was at most 0.126 µM. In the case of `COc1cccc2c1c(NS(=O)(=O)c1ccc(Cl)s1)nn2Cc1cccc(CNC(=O)c2ccoc2)c1` [Example 41, N-[(3-{[3-{[(5-Chloro-2-thienyl)sulfonyl]amino}-4-(methyloxy)-1H-indazol-1-yl]methyl}phenyl)methyl]-3-furancarboxamide] it was at most 0.126 µM; in that of `COc1cccc2c1c(NS(=O)(=O)c1ccc(Cl)s1)nn2Cc1cccc(CNC(=O)C2CCCCN2C)c1` (stereo not shown) [Example 42, N-[(3-{[3-{[(5-chloro-2-thienyl)sulfonyl]amino}-4-(methyloxy)-1H-indazol-1-yl]methyl}phenyl)methyl]-1-methyl-2-piperidinecarboxamide trifluoroacetate], at most 0.126 µM.

The record behind these values is US8304446B2, “Compounds” (Glaxo Group Limited, priority 2009, dated 2012).
